Earlier results, collected in patent US20140287088A1, “Calcium Citrate-Malate as source of calcium to prevent bone diseases and increase bone strength in young animals and birds, especially young poultry, dogs, cats, swine, calves, and horses; and laying hens” (priority 2013, published 2014).

Legend:
[1] = humans; CCM-fortified food vs food fortified with calcium carbonate
[2] = tested on: rats; conditions: by 12 wk

calcium citrate-malate [CC-M]
calcium absorption and retention [1]: significantly greater | more trabecular bone than rats fed calcium carbonate [2]: 44%
